The nature of test [1]: (§1) Neuroprotective activity against glutamate-induced cell death in rat PC12 cells assessed as cell viability at 0.1 uM after 24 hrs by MTT assay. Type of test: functional. The conditions noted are these: PC-12, 24 h, read-out: Activity.
Test [2] in a line: (§2) Neuroprotective activity against glutamate-induced cell death in rat PC12 cells assessed as cell viability at 10 uM after 24 hrs by MTT assay. Type of test: functional. The conditions noted are these: PC-12, 24 h, read-out: Activity. (Tetrazolium dyes change colour on reduction, which living cells bring about.)
Test [3] can be described thus: (§3) Neuroprotective activity against glutamate-induced cell death in rat PC12 cells assessed as cell viability at 1 uM after 24 hrs by MTT assay. The conditions noted are these: PC-12, 24 h, read-out: Activity. Type of test: functional.
Test [4] has as its system PC-12. Briefly: Neuroprotective activity against glutamate-induced apoptosis in rat PC12 cells assessed as procaspase-3 level at 0.1 to 10 uM after 24 hrs by western blot analysis. The format is functional, cell-based. On the technique in general: A western blot detects proteins with antibodies after separation by electrophoresis.
Test [5] concerns PC-12. Briefly: Neuroprotective activity against glutamate-induced apoptosis in rat PC12 cells at 0.1 uM after 24 hrs by hoechst 33342 and propidium iodide double staining based fluorescence analysis (reference value: 43.97 +/- 2.69%). Type of test: functional.
Test [6] relates to PC-12. Briefly: Neuroprotective activity against glutamate-induced apoptosis in rat PC12 cells assessed as decrease in caspase-3 level after 24 hrs by western blot analysis. Type of test: functional, cell-based.
The test system of test [7] is PC-12. Briefly: Neuroprotective activity against glutamate-induced apoptosis in rat PC12 cells after 24 hrs by hoechst 33342 and propidium iodide double staining based fluorescence analysis. The format is functional, cell-based.
Test [8] relates to PC-12. Briefly: Neuroprotective activity against glutamate-induced apoptosis in rat PC12 cells at 10 uM after 24 hrs by hoechst 33342 and propidium iodide double staining based fluorescence analysis (reference value: 43.97 +/- 2.69%). The format is functional.
For test [9], the system named is PC-12. Kind of test: Neuroprotective activity against glutamate-induced cell death in rat PC12 cells assessed as cell viability after 24 hrs by MTT assay. Type of test: functional, cell-based.
In test [10] the test system is PC-12. Kind of test: Neuroprotective activity against glutamate-induced apoptosis in rat PC12 cells at 1 uM after 24 hrs by hoechst 33342 and propidium iodide double staining based fluorescence analysis (reference value: 43.97 +/- 2.69%). Type of test: functional.
Test [11] is described as follows: Neuroprotective activity against glutamate-induced cell death in rat PC12 cells assessed as cell viability at 90 uM after 24 hrs by MTT assay. Type of test: functional. The following applies: PC-12, 24 h, read-out: Activity.
The subject of test [12] is PC-12. Described as §1. The format is functional.
Test [13] concerns PC-12. Described as §2. Type of test: functional.
Test [14] relates to PC-12. The test is described as §3. The format is functional.
In test [15] the test system is PC-12. Briefly: Neuroprotective activity against glutamate-induced apoptosis in rat PC12 cells assessed as decrease in procaspase-3 level after 24 hrs by western blot analysis. The format is functional, cell-based.

Molecules are shown by their SMILES. Active and inactive are the calls of the source. The rule behind the calls is not given here.

Regarding `COc1ccccc1OCC(=O)N1CCN(Cc2ccc(Br)cc2)CC1`, the viability at 0.1 µM in test [1] worked out at 38%. Also, the viability at 10 µM in test [2] came out at 20.8%. Further, in test [3], the viability at 1 µM turned out to be 41%.
Consider `O=C(COc1ccc(Br)cc1)N1CCN(C(c2ccc(F)cc2)c2ccc(F)cc2)CC1`, for which, in test [4], the result was inactive. Moreover, the Activity in test [5] is 41.83%; in test [6], “Dose-dependent effect”; in test [7], “Dose-dependent effect”; in test [8], 24.65%; in [9], “Dose-dependent effect”; in test [10] it was 32.18%. The viability at 0.1 µM in test [1] is 26.8%. For the same compound, in [2], the viability at 10 µM amounted to 77.1%. In addition, the viability at 1 µM in test [3] was found to be 47.6%.
As to `CC1=NN(c2ccccc2)C(=O)C1` [EDARAVONE], the viability at 90 µM in [11] came to 33%.
`O=C(COc1ccc(Br)cc1)N1CCN(Cc2ccc(Br)cc2)CC1`: the outcome in test [12], in [13] and in test [14] was inactive.
With `Cc1ccc(C(c2ccc(C)cc2)N2CCN(C(=O)COc3ccc(Cl)cc3)CC2)cc1`, the viability at 0.1 µM in test [1] came out at 5.81%. Moreover, the viability at 10 µM in [2] worked out at 9.2%. In addition, the viability at 1 µM in test [3] was 9.14%.
As for `COc1ccc(/C=C/C(=O)N2CCN(C(c3ccc(F)cc3)c3ccc(F)cc3)CC2)cc1`, the viability at 0.1 µM in test [1] amounted to 71%. In test [2], the viability at 10 µM was 77.8%. In addition, the viability at 1 µM in [3] was found to be 49.7%.
For `CCOc1ccc(CN2CCN(C(=O)COc3ccccc3C)CC2)cc1` the same measures were 35.3%, 28.9% and 30.6%.
Regarding `Cc1ccc(C(c2ccc(C)cc2)N2CCN(C(=O)COc3ccccc3C)CC2)cc1`, in test [1], the viability at 0.1 µM is 3.24%. Besides, the viability at 10 µM in test [2] stood at 11.3%. Also, in [3], the viability at 1 µM is 4.24%.
In the case of `COC(=O)c1ccccc1CN1CCN(C(=O)COc2ccc(Br)cc2)CC1`, the outcome in test [12], in [13] and in test [14] was inactive.
Take `Cc1ccccc1OCC(=O)N1CCN(C(c2ccc(Br)cc2)c2ccc(Br)cc2)CC1`: the result in test [12], in test [13] and in test [14] was inactive.
On to `Cc1ccccc1OCC(=O)N1CCN(Cc2ccc(Br)cc2)CC1`, for which the viability at 0.1 µM in test [1] worked out at 10.2%. For the same compound, in [2], the viability at 10 µM was 20.8%. Also, the viability at 1 µM in test [3] came to 22.1%.
Take `O=C(COc1ccc(Cl)cc1)N1CCN(C(c2ccc(Br)cc2)c2ccc(Br)cc2)CC1`: in test [1], the viability at 0.1 µM came to 4.22%. Besides, the viability at 10 µM in test [2] worked out at 16.7%. For the same compound, in test [3], the viability at 1 µM is 8.01%.
Consider `COc1ccc(OCC(=O)N2CCN(C(c3ccc(Br)cc3)c3ccc(Br)cc3)CC2)cc1`, for which the viability at 0.1 µM in [1] turned out to be 3.52%. Further, the viability at 10 µM in test [2] is 50.3%. Moreover, the viability at 1 µM in test [3] worked out at 7.06%.
For `COc1ccc(OCC(=O)N2CCN(C(c3ccc(C)cc3)c3ccc(C)cc3)CC2)cc1`, in [1], the viability at 0.1 µM is 21.7%. The viability at 10 µM in [2] is 47.5%. Also, the viability at 1 µM in test [3] stood at 42.3%.
For `COC(=O)c1ccccc1CN1CCN(C(=O)COc2ccccc2OC)CC1`, the viability at 0.1 µM in test [1] amounted to 23.2%. The viability at 10 µM in test [2] is 23.1%. In addition, the viability at 1 µM in test [3] turned out to be 32.8%.
On the same counts, the results for `COc1ccccc1OCC(=O)N1CCN(C(c2ccc(Br)cc2)c2ccc(Br)cc2)CC1` are 45.5%, 6.67% and 12.8%.
For `O=C(COc1ccc2ccccc2c1)N1CCN(C(c2ccc(Br)cc2)c2ccc(Br)cc2)CC1` the same measures were 4.06%, 30.2% and 7.87%.
In the case of `COC(=O)c1ccccc1CN1CCN(C(=O)COc2ccc(Cl)cc2)CC1`, in test [1], the viability at 0.1 µM came out at 39.9%. Also, the viability at 10 µM in [2] was found to be 6.36%. Besides, the viability at 1 µM in test [3] stood at 5.15%.
For `COc1ccc(C(c2ccc(OC)cc2)N2CCN(C(=O)COc3ccccc3C)CC2)cc1`, the viability at 0.1 µM in [1] was found to be 2.45%. Besides, in test [2], the viability at 10 µM is 21.2%. Further, in [3], the viability at 1 µM came to 3.75%.
With `O=C(COc1ccc2ccccc2c1)N1CCN(C(c2ccc(F)cc2)c2ccc(F)cc2)CC1`, the outcome in test [12], in test [13] and in test [14] was inactive.
For the compound `COc1ccccc1OCC(=O)N1CCN(C(c2ccc(F)cc2)c2ccc(F)cc2)CC1`, the Activity in [5] is 42.28%; in test [6], “Dose-dependent effect”; in [15] it was “Dose-dependent effect”; in test [7], “Dose-dependent effect”; in [8] it was 19.18%; in test [9] it was “Dose-dependent effect”. For the same compound, in [10], the Activity turned out to be 31.04%. The viability at 0.1 µM in test [1] stood at 32%. The viability at 10 µM in test [2] stood at 79.7%. Further, the viability at 1 µM in [3] stood at 45.9%.
With `COC(=O)c1ccccc1CN1CCN(C(=O)COc2ccc3ccccc3c2)CC1`, the Activity is 35.67% in [5]; “Dose-dependent effect” in test [6]; “Dose-dependent effect” in [15]; “Dose-dependent effect” in test [7]; 21.81% in test [8]; “Dose-dependent effect” in test [9]. Besides, in test [10], the Activity is reported as 29.27%. Also, the viability at 0.1 µM in test [1] came to 25.6%. In addition, the viability at 10 µM in test [2] worked out at 49.5%. In addition, the viability at 1 µM in test [3] worked out at 37.4%.
Regarding `COc1ccc(OCC(=O)N2CCN(C(c3ccc(F)cc3)c3ccc(F)cc3)CC2)cc1`, the viability at 0.1 µM in test [1] came to 3.1%. The viability at 10 µM in [2] is 80.5%. Further, the viability at 1 µM in test [3] was determined as 5.26%.
Turning to `Cc1ccccc1OCC(=O)N1CCN(C(c2ccc(F)cc2)c2ccc(F)cc2)CC1`, the viability at 0.1 µM in [1] was 7.92%. The viability at 10 µM in test [2] was determined as 57%. Further, in test [3], the viability at 1 µM worked out at 8.7%.
As for `CCOc1ccccc1CN1CCN(C(=O)COc2ccccc2C)CC1`, the viability at 0.1 µM in [1] turned out to be 53.3%. In addition, in test [2], the viability at 10 µM was 8.52%. In addition, the viability at 1 µM in test [3] amounted to 11.9%.
`COC(=O)c1ccccc1CN1CCN(C(=O)COc2ccccc2C)CC1`: the viability at 0.1 µM in test [1] amounted to 6.39%. The viability at 10 µM in [2] turned out to be 25.1%. Further, the viability at 1 µM in [3] is 9.55%.
With `CCOc1ccccc1CN1CCN(C(=O)COc2ccc3ccccc3c2)CC1`, the result in test [4] was inactive. Moreover, the Activity in test [5] is 35.09%; in test [6] it was “Dose-dependent effect”; in test [7], “Dose-dependent effect”; in test [8], 16.21%; in test [9] it was “Dose-dependent effect”; in test [10] it was 23.73%. Besides, the viability at 0.1 µM in test [1] is 29.8%. For the same compound, the viability at 10 µM in test [2] is 59.6%. For the same compound, in test [3], the viability at 1 µM was determined as 45.7%.
On to `COC(=O)c1ccccc1CN1CCN(C(=O)COc2ccc(OC)cc2)CC1`, for which the outcome in [12], in test [13] and in test [14] was inactive.
As for `COc1ccc(OCC(=O)N2CCN(C(c3ccc(OC)cc3)c3ccc(OC)cc3)CC2)cc1`, the viability at 0.1 µM in [1] stood at 59.4%. For the same compound, the viability at 10 µM in test [2] was found to be 56.7%. For the same compound, the viability at 1 µM in test [3] was 80.7%.
On to `Cc1ccc(C(c2ccc(C)cc2)N2CCN(C(=O)COc3ccc4ccccc4c3)CC2)cc1`, for which, in [1], the viability at 0.1 µM was 4.75%. Further, the viability at 10 µM in [2] was 10.3%. Further, in test [3], the viability at 1 µM is 5.63%.
On the same counts, the results for `COc1ccc(C(c2ccc(OC)cc2)N2CCN(C(=O)COc3ccc4ccccc4c3)CC2)cc1` are 2.55%, 25.6% and 5.42%.
Regarding `O=C(COc1ccc(Br)cc1)N1CCN(C(c2ccc(Br)cc2)c2ccc(Br)cc2)CC1`, the result in test [12], in test [13] and in [14] was inactive.
As to `COC(=O)c1ccccc1CN1CCN(C(=O)COc2ccc(C)cc2)CC1`, the result in test [12], in [13] and in test [14] was inactive.
In the case of `COc1ccccc1OCC(=O)N1CCN(C(c2ccc(C)cc2)c2ccc(C)cc2)CC1`, the result in test [12], in [13] and in test [14] was inactive.
